Values of other authors in patent publication US20180289729A1, “COMBINATION THERAPY FOR TREATMENT OF HUMAN NEURODEGENERATIVE DISEASES” (priority 2017, published 2018).

Key:
[1] = tested on: proliferating neural stem and progenitor cells within the hippocampal dentate gyrus; details: both young and "old" mice models
hippocampal neurogenesis = details: rat models

Cc1cccc(-c2n[nH]cc2-c2ccc3ncccc3n2)n1 [2-(3-(6-methylpyricin-2-yl)-1H-pyrazol-4-yl)-1,5-naphthyridine]
increase in the number of proliferating neural stem and progenitor cells within the hippocampal dentate gyrus [1]: two-fold increase

CCCCCCC(C)(C)c1cc(O)c2c(c1)OC(C)(C)[C@@H]1CC=C(CO)C[C@@H]21 [[(6aR)-trans-3-(1,1-dimethylheptyl)-6a, 7,10,10a-tetrahydro-1-hydroxy-6,6-dimethyl-6H-dibenzo [b,d]pyran-9-methanol]]
effect on hippocampal neurogenesis (hippocampal neurogenesis): dramatic effect
